Series [1] can be described thus: Transepithelial transport assay in parental MDCK-II monolayers. It counts as in vitro ADME, canine. The note with it: dog, nitroxynil 10 µM, no Ko143, read-out: Relative efflux transport ratio (BA/AB). The procedure: (§1) Parental Madin–Darby canine kidney epithelial cells (MDCK–II) and their subclones transduced with murine (mAbcg2) and human (hABCG2) variants of ABCG2 were kindly provided by Dr. A. H. Schinkel (Netherlands Cancer Institute). Transduced MDCK–II cells with the ovine (oABCG2) and bovine (bABCG2) variants were previously generated by our group. Cells were cultured as described elsewhere.
(§2) Transepithelial transport assays were carried out as previously described with minor variations, using Hanks’ balanced salt solution (Sigma-Aldrich) supplemented with HEPES (25 mM), with or without Ko143 (1 μM), and containing or not nitroxynil 10 μM. […] At the end of the experiment, confluence of the monolayer was measured with the previously described Lucifer Yellow permeability test, with minor modifications. The appearance of nitroxynil in the opposite side of the well was measured by HPLC as later described. Active transport was expressed as relative efflux transport ratio (apically directed transport percentage divided by the basolaterally directed translocation percentage) at 4 h and referred to the initial concentration. […]
(§3) Waters 2695 separation module and Waters 2998 UV photodiode array detector set at 270 nm were used for samples analysis. […] Limit of detection (LOD) and quantification (LOQ) were calculated as previously described. […]

Series [2] concerns the target T1, human ABCG2 (Homo sapiens, UniProt Q9UNQ0).
T1 construct: expressed in transfected cells; host or cells: MDCK-II (canine kidney) subclone, provided by A. H. Schinkel (Netherlands Cancer Institute)
T1 sequence (Q9UNQ0 1-655): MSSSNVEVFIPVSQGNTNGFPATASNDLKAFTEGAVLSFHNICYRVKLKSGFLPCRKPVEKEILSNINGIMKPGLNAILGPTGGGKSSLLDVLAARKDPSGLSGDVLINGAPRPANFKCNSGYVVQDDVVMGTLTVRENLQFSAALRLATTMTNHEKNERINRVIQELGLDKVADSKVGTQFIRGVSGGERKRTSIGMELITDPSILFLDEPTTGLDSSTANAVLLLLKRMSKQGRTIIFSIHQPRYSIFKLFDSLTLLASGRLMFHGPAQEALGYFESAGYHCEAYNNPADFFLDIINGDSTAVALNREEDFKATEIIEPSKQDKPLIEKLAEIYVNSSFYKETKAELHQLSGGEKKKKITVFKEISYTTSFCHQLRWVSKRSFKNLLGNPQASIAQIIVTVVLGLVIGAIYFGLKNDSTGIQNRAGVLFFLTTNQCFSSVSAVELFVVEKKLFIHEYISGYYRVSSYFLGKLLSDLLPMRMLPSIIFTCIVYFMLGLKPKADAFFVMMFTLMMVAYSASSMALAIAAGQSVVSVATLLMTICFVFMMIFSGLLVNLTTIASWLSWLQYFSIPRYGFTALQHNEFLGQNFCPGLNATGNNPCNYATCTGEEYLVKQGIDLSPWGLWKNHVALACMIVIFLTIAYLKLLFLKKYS
Kind of series: Transepithelial transport assay in MDCK-II cells transduced with human ABCG2. It counts as in vitro ADME. The note with it: MDCK-II hABCG2, nitroxynil 10 µM, no Ko143, read-out: Relative efflux transport ratio (BA/AB). The procedure:
as §1, §2, §3

Series [3] concerns murine Abcg2. Kind of series: Plasma pharmacokinetics in wild-type and Abcg2−/− male mice. The note with it: 10 mg/kg s.c. It counts as in vivo. Here is the method:
All in vivo experiments were carried out using wild-type and Abcg2^−/− mice aged between 8 and 17 weeks, all of >99% FVB/N genetic background, generated and gently supplied by A. H. Schinkel (Netherlands Cancer Institute). Mice were housed and handled complying with institutional and ARRIVE guidelines and European legislation (EU Directive 2010/63/EU for animal experiments). Additionally, experimental procedures were approved by the Animal Care and Use Committee of the University of León and the Junta de Castilla y León (ULE_011_2019).
For pharmacokinetic experiments, a single dose of nitroxynil at 10 mg/kg was administered subcutaneously to wild-type and Abcg2^−/− male mice (n = 4–5, for each time point). Distomicide® (250 mg/mL) commercial solution was dissolved in saline (sodium chloride 0.9%) and dosed at 200 μL per 30 g body weight. Blood samples were collected at different time points (0.5, 3, 4.5, 6, 24, 48 and 96 h) and heparinized blood samples were centrifugated for 15 min at 3000× g. […]
Plasma, milk and tissue samples from each animal were individually processed and analyzed without pooling, while samples from transport assays were not processed. […]
as §3

On the set-up of series [4]: method as in PMID 7180778. The note with it: cited from earlier work.
Series [5] deals with ovine ABCG2. In words: Transepithelial transport assay in MDCK-II cells transduced with ovine ABCG2. It is filed as in vitro ADME. The note with it: sheep, MDCK-II oABCG2, nitroxynil 10 µM, no Ko143, read-out: Relative efflux transport ratio (BA/AB). Here is the method: as §1, §2, §3

This is an account of results in publication PMC11054271, “ABCG2 Transports the Flukicide Nitroxynil and Affects Its Biodistribution and Secretion into Milk” (Pharmaceutics, 2024).

On to `N#Cc1cc(I)c(O)c([N+](=O)[O-])c1` [nitroxynil], for which the efflux ratio at 4 h, 10 µM in series [1] was determined as 1.04 ± 0.03; in series [2] it was 8.76 ± 0.5; in series [5], 27.4 ± 5.32. In addition, the AUC (commonly concentration integrated over time) in series [3] (FVB/N, mouse, plasma, sc, Abcg2−/− male mice, 0.5-96 h) worked out at 3530 ± 130 µg·h/mL. The “Time of Cmax (sampling point)” value in series [3] (both type of mice (wild-type and Abcg2−/−), male) is on record as 3 h. Besides, the “Time after treatment at which residues have been found in tissues” value in series [4] was no more than 90 days.
